Experimental data reported in the supplement of paper PMC11451515.

Test system: SEM cells
Assay: cell viability relative to DMSO control; higher = less cytotoxic
Conditions: 48 h
Method in brief: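 Viability is a per-plate percentage relative to DMSO wells, with cell-free wells as background. CellTiter-Glo One luminescence was read after 48 h at 37°C on 1536-well plates (5 μl) of NOMO1 or SEM (500 cells/well) or P12-Ichikawa (1000 cells/well) leukemia cells. The cells had been adapted for at least four passages in each medium and pin-dosed with library compounds in DMSO from 47 μM to 0.79 nM in 11 threefold steps.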

[1] = HPLM + 10% dialyzed FBS, 0.000781 µM
[2] = HPLM + 10% dialyzed FBS, 0.00234 µM
[3] = HPLM + 10% dialyzed FBS, 0.00702 µM
[4] = HPLM + 10% dialyzed FBS, 0.0211 µM
[5] = HPLM + 10% dialyzed FBS, 0.0632 µM
[6] = HPLM + 10% dialyzed FBS, 0.19 µM
[7] = HPLM + 10% dialyzed FBS, 0.569 µM
[8] = HPLM + 10% dialyzed FBS, 1.71 µM
[9] = HPLM + 10% dialyzed FBS, 5.12 µM
[10] = HPLM + 10% dialyzed FBS, 15.4 µM
[11] = HPLM + 10% dialyzed FBS, 46.1 µM
[12] = RPMI 5 mM glucose + 10% FBS, 0.000781 µM
[13] = RPMI 5 mM glucose + 10% FBS, 0.00234 µM
[14] = RPMI 5 mM glucose + 10% FBS, 0.00702 µM
[15] = RPMI 5 mM glucose + 10% FBS, 0.0211 µM
[16] = RPMI 5 mM glucose + 10% FBS, 0.0632 µM
[17] = RPMI 5 mM glucose + 10% FBS, 0.19 µM
[18] = RPMI 5 mM glucose + 10% FBS, 0.569 µM
[19] = RPMI 5 mM glucose + 10% FBS, 1.71 µM
[20] = RPMI 5 mM glucose + 10% FBS, 5.12 µM
[21] = RPMI 5 mM glucose + 10% FBS, 15.4 µM
[22] = RPMI 5 mM glucose + 10% FBS, 46.1 µM
[23] = RPMI 5 mM glucose + 10% dialyzed FBS, 0.000781 µM
[24] = RPMI 5 mM glucose + 10% dialyzed FBS, 0.00234 µM
[25] = RPMI 5 mM glucose + 10% dialyzed FBS, 0.00702 µM
[26] = RPMI 5 mM glucose + 10% dialyzed FBS, 0.0211 µM
[27] = RPMI 5 mM glucose + 10% dialyzed FBS, 0.0632 µM
[28] = RPMI 5 mM glucose + 10% dialyzed FBS, 0.19 µM
[29] = RPMI 5 mM glucose + 10% dialyzed FBS, 0.569 µM
[30] = RPMI 5 mM glucose + 10% dialyzed FBS, 1.71 µM
[31] = RPMI 5 mM glucose + 10% dialyzed FBS, 5.12 µM
[32] = RPMI 5 mM glucose + 10% dialyzed FBS, 15.4 µM
[33] = RPMI 5 mM glucose + 10% dialyzed FBS, 46.1 µM

| Structure (SMILES) | cell viability [1] [%] | cell viability [2] [%] | cell viability [3] [%] | cell viability [4] [%] | cell viability [5] [%] | cell viability [6] [%] | cell viability [7] [%] | cell viability [8] [%] | cell viability [9] [%] | cell viability [10] [%] | cell viability [11] [%] | cell viability [12] [%] | cell viability [13] [%] | cell viability [14] [%] | cell viability [15] [%] | cell viability [16] [%] | cell viability [17] [%] | cell viability [18] [%] | cell viability [19] [%] | cell viability [20] [%] | cell viability [21] [%] | cell viability [22] [%] | cell viability [23] [%] | cell viability [24] [%] | cell viability [25] [%] | cell viability [26] [%] | cell viability [27] [%] | cell viability [28] [%] | cell viability [29] [%] | cell viability [30] [%] | cell viability [31] [%] | cell viability [32] [%] | cell viability [33] [%] |
| --- | --- | --- | --- | --- | --- | --- | --- | --- | --- | --- | --- | --- | --- | --- | --- | --- | --- | --- | --- | --- | --- | --- | --- | --- | --- | --- | --- | --- | --- | --- | --- | --- | --- |
| CCc1cc(/C(C)=N/OCc2ccc(C3CCCCC3)c(C(F)(F)F)c2)ccc1CN1CC(C(=O)O)C1 | 104 | 117 | 112 | 109 | 104 | 115 | 120 | 117 | 99.8 | 87.1 | 82.9 | 92 | 108 | 109 | 109 | 105 | 109 | 106 | 99.9 | 96.2 | 82.2 | 70.2 | 114 | 116 | 125 | 123 | 126 | 124 | 137 | 132 | 118 | 106 | 94 |
| c1cc(-c2sc(-c3ccncc3)c(-c3ccncc3)c2-c2ccncc2)ccn1 | 90.9 | 107 | 108 | 110 | 106 | 116 | 107 | 82.4 | 43.3 | 20.7 | 14.9 | 89.6 | 87.8 | 93.9 | 89.3 | 106 | 97.9 | 101 | 63.5 | 29.6 | 17.9 | 13.2 | 102 | 101 | 118 | 113 | 106 | 110 | 103 | 67.3 | 41 | 22.4 | 15.1 |
| COc1ccc(-c2c(-c3ccc(O)cc3O)n[nH]c2C)cc1 | 98.3 | 95.8 | 114 | 108 | 110 | 108 | 88.8 | 95.5 | 86 | 62.2 | 51.1 | 114 | 104 | 107 | 109 | 108 | 108 | 103 | 84.3 | 84.1 | 44 | 20.9 | 98.6 | 96.8 | 93 | 101 | 103 | 108 | 96.2 | 99.5 | 87 | 54.4 | 30.9 |
| CNC(=O)c1cc(Oc2ccc(NC(=O)Nc3cc(C(C)(C)C)nn3-c3ccc4ncccc4c3)c(F)c2)ccn1 | 98.3 | 113 | 118 | 113 | 116 | 102 | 80.5 | 66.6 | 61.7 | 52.2 | 41.6 | 108 | 114 | 107 | 115 | 122 | 99.2 | 85.3 | 61.3 | 50.5 | 39.2 | 26.2 |  |  |  |  |  |  |  |  |  |  |  |
| CN(C)c1nc(N(C)C)nc(N(C)C)n1 | 92.3 | 97.3 | 110 | 95.1 | 103 | 104 | 106 | 92.5 | 97.6 | 92.2 | 84.9 | 107 | 111 | 102 | 105 | 107 | 101 | 102 | 100 | 90.1 | 104 | 93.4 | 102 | 115 | 102 | 104 | 108 | 110 | 109 | 94.3 | 100 | 98.6 | 93.1 |
| C[C@@]12OC(=O)[C@@]1(NC(=O)[C@@H]2CCCl)[C@@H](O)[C@H]\3CCC\C=C3 | 78.2 | 92.7 | 93.6 | 100 | 34.2 | 10 | 6.88 | 6.65 | 4.57 | 3.3 | 2.16 | 87.5 | 90.2 | 93.7 | 96.8 | 31.8 | 8.22 | 7.13 | 6.4 | 4.56 | 2.53 | 2.01 | 80.9 | 92 | 91.8 | 84 | 33.3 | 9.46 | 7.84 | 7.08 | 5.11 | 3.72 | 2.53 |
| C[C@@H]1CN(CC(=O)N2CC(C)(C)c3ncc(Cc4ccc(F)cc4)cc32)[C@@H](CN2CCOC[C@H]2C)CN1 | 83.8 | 105 | 48 | 115 | 105 | 95.2 | 113 | 85 | 105 | 104 | 73 | 76.3 | 96.3 | 30.4 | 104 | 92.5 | 88.9 | 97.8 | 89.2 | 110 | 80.4 | 54.9 | 86.9 | 116 | 40.8 | 117 | 103 | 114 | 111 | 104 | 111 | 94.5 | 75.6 |
| Nc1ccc([S+](=O)([O-])Nc2ccccn2)cc1 | 77.7 | 91.7 | 91.3 | 93.7 | 82.7 | 91 | 93.6 | 98.8 | 88.5 | 97 | 96.9 | 100 | 104 | 115 | 118 | 112 | 108 | 122 | 119 | 124 | 109 | 111 | 98.6 | 109 | 100 | 101 | 113 | 101 | 99 | 108 | 121 | 103 | 115 |
